Experimental data from patent publication US20240358767A1, “STEM CELL DIFFERENTIATION AND CHEMICAL COMPOUNDS” (VERTEX PHARMACEUTICALS INCORPORATED, priority 2021, published 2024).
“And” between values parts separate entries of the source, which are not always exact repeats. Identical values can stand only once. Like-named read-outs stand apart in the source and are kept apart here.

How the values were obtained:
[1] = test system: Stem cells; test: 384-well screen of small molecule compounds for Stage 1 differentiation to Sox17-positive definitive endoderm cells (immunostaining, DAPI); details: for signal in Oct 4 channel / signal in Sox17 channel: 10 ng/mL AA plus test compound, about 8 concentrations, dose-responsive manner; for Relative to 100 ng/mL AA (percentage of Sox17-positive cells normalized by the percentage with 100 ng/mL AA): Stage 1 condition with 10 ng/mL AA and the test compound, 384-well plates; for nuclear blebbing in the resulting cell population: visual inspection
[2] = molecular target: EZH2 (Homo sapiens, UniProt Q15910); details: cited from earlier work
[3] = test system: human stem cells; test: Stage 1 differentiation of stem cells (Version A protocol), flow cytometry of Oct4 and Sox17 at completion of Stage 1 (S1C); format: cell-based
Experimental: (§1) An exemplary base differentiation protocol, Version A, according to the present disclosure, was used for differentiating human stem cells into mature β cells capable of releasing insulin in response to glucose challenge in vitro.
(§2) Version A protocol is a 6-stage stepwise protocol. With Version A protocol, stem cells were treated with reagents in a manner similar to the Version A described in Example 1 of U.S. Patent Publication No. US20220090020A1, which is incorporated by reference herein in its entirety. In some experiments, Version A was modified such that 100 ng/mL Activin A at Stage 1 was replaced with a different concentration of Activin A as described below.
(§3) In one experiment, differentiation of the stem cells was initiated in spinner flasks using Version A protocol, and three different concentrations of Activin A (“AA”), 100 ng/mL (100%), 10 ng/mL (10%), and 5 ng/mL (5%), applied throughout the three days of Stage 1 were tested, while the remaining differentiation steps were kept the same. On QC days, e.g., upon completion of Stage 1 (“S1C”), completion of Stage 3 (“S3C”), or completion of Stage 5 (“S5C”), the cells were examined for their morphology and cell constituents. Specifically, 5 mL of cell cluster suspension solution were taken from the spinner flask, with 1 mL suspension aliquoted into a 24 well plate. Pictures of the cell clusters in the 24-well plate were taken under brightfield microscope. The cell clusters in the remaining 4 mL suspension were dispersed with TrypLE Express (Life Technologies; 12,604,013) at 37° C. for 20 min, fixed with 4% PFA for 20 mins at 4° C., blocked for 1 hour in FACS buffer (5% Donkey Serum and 0.05% Triton-100 in PBS) at room temperature, and stained with various antibodies against cell markers. Stained cells were then measured using an Accuri 6 flow cytometer (BD Biosciences) and analyzed using FlowJo software.
In another experiment, a dose-response test was conducted to examine the effects of different concentrations of Activin A at Stage 1 on stem cell differentiation. Five different concentrations of Activin A were tested: 100 ng/mL (100%), 20 ng/mL (20%), 10 ng/mL (10%), 5 ng/mL (5%), and 0 ng/mL (0%).
(§4) In one experiment, four different conditions for Stage 1 differentiation were tested: 100% Activin A, 10% Activin A, 10% Activin A plus GSK-690693 (“GSK”), or 10% Activin A plus BYL719 (“BYL”). Characterization of cell morphology and cell constituents were conducted similarly as described in EXAMPLE 1. The experiment was repeated for four times. Table 3 summarizes the quantification of flow cytometry analysis results at S1C, S3C, and S5C, and total viable cell yield at S5C for the four runs. In all the four runs, 0.1 μM […] or 0.04 μM BYL719 was applied for 3 days of Stage 1, except that in the last two runs, Run 4 and Run 5, 0.04 μM of BYL719 was applied for only 2 days (days S1d1 and S1d2).
(§5) In one experiment, six different conditions for Stage 1 differentiation were tested: 100% Activin A, 10% Activin A, 10% Activin A plus GSK-690693, 10% Activin A plus BYL719, 10% Activin A plus GSK-690693 and BYL719, or 100% Activin A plus GSK-690693 and BYL719. Characterization of cell morphology and cell constituents were conducted similarly as described in EXAMPLE 1. FIGS. 2A-5E and Table 4 summarize the characterizations of the cells obtained under the six differentiation conditions at different stages.

[4] = test system: human stem cells; test: Version A differentiation, flow cytometry of Nkx6.1 and Isl1 at completion of Stage 5 (S5C); format: cell-based
Experimental: as §1, §2, §3, §4, §5

[5] = test system: human stem cells; test: Version A differentiation, flow cytometry of Pdx1, Cdx2 and Sox2 at completion of Stage 3 (S3C); format: cell-based
Experimental: as §1, §2, §3, §4, §5

[6] = test system: human stem cells; test: Total viable cell yield at S5C; format: cell-based; details: 0.1 μM GSK for 3 days of Stage 1 plus 10% AA, Runs 4-5, listed as GSK
Experimental: as §1, §2, §4

[7] = test system: human stem cells; test: Version A differentiation, flow cytometry of Nkx6.1 and Isl1 on day 7 of Stage 6 (S6d7); format: cell-based; details: for Markers on S6d7 Isl1 + /Nkx6.1+ / Markers on S6d7 Isl1 + /Nkx6.1−: 10% AA plus the compound(s) at Stage 1
Experimental: as §1, §2, §3, §5
In another experiment, the effects of the aforementioned six different conditions for Stage 1 differentiation on Stage 6 differentiation were tested under two Stage 6 medium regimens: regimen 1 (Table 5) and regimen 2 (Table 6).

[8] = test system: Stem cells
[9] = 10% AA (10 ng/mL Activin A) plus the compound(s) at Stage 1
[10] = 0.1 μM GSK for 3 days of Stage 1 plus 10% AA (10 ng/mL Activin A), Runs 3-5, listed as GSK

EZH2, sequence (Q15910 whole entry, species assumed): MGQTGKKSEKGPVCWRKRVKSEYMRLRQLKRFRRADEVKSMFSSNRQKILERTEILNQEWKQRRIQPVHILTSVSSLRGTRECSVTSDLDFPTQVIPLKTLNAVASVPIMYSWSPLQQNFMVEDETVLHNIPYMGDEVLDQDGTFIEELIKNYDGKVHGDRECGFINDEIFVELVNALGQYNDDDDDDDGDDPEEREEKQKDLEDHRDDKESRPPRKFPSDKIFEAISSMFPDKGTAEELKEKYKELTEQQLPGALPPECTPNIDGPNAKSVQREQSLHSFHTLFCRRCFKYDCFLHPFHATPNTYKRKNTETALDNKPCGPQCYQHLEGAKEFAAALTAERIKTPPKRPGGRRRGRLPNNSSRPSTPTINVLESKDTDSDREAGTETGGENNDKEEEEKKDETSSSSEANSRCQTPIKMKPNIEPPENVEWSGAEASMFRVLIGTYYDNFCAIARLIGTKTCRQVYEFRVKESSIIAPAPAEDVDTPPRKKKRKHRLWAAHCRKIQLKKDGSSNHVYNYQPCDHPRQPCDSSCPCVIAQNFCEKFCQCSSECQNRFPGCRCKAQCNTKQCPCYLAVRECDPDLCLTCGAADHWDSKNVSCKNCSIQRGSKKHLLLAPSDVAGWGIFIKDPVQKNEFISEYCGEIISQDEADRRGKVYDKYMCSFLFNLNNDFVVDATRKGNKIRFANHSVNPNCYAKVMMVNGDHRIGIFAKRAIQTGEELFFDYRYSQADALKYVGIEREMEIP
EZH2, sequence (O75530 whole entry partner, species assumed): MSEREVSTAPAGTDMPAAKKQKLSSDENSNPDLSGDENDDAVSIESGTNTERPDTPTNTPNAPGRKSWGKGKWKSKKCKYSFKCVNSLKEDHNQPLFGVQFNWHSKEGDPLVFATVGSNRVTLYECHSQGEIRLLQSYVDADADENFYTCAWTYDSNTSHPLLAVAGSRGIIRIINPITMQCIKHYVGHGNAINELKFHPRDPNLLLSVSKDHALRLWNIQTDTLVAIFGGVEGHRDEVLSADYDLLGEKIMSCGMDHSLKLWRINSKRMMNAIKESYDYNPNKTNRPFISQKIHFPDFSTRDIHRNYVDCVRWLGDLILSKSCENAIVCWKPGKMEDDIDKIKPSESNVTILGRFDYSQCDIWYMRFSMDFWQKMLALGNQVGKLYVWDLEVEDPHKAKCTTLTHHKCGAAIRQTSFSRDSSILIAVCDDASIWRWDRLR
EZH2, sequence (Q15022 whole entry partner, species assumed): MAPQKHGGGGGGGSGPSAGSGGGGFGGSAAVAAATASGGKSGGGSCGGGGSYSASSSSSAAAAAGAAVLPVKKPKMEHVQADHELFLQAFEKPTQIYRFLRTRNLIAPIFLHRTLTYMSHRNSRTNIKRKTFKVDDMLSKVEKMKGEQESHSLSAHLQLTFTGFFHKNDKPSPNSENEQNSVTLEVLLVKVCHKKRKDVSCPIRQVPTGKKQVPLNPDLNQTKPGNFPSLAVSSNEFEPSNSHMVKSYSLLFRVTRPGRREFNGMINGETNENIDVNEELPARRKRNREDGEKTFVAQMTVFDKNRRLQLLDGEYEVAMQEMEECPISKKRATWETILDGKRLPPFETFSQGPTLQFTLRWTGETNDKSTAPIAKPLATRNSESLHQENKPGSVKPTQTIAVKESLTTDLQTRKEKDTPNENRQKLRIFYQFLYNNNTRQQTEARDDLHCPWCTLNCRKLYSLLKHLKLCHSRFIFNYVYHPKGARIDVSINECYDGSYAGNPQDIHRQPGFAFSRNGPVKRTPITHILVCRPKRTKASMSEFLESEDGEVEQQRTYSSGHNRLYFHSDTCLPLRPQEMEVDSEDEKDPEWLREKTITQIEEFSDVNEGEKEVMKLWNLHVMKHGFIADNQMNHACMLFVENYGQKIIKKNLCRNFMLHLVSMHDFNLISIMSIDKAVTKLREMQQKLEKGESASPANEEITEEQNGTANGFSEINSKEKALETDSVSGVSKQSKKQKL

COc1ccc(-c2ccc3c(N4CCOC[C@@H]4C)nc(N4CCOC[C@@H]4C)nc3n2)cc1CO [AZD8055]
signal in Oct 4 channel [1]: decrease
signal in Sox17 channel [1]: increase
Relative to 100 ng/mL AA (percentage of Sox17-positive cells normalized by the percentage with 100 ng/mL AA) [1]: 117%
nuclear blebbing in the resulting cell population [1]: not to induce

Cc1c(CN2CCN(C(=O)[C@H](C)O)CC2)sc2c(N3CCOCC3)nc(-c3cnc(N)nc3)nc12 [Apitolisib]
Relative to 100 ng/mL AA (percentage of Sox17-positive cells normalized by the percentage with 100 ng/mL AA) [1]: 168%

Nc1nc(-c2nn(Cc3ccccc3F)c3ncccc23)ncc1C1CC1 [BAY 41-2272]
signal in Oct 4 channel [1]: decrease
signal in Sox17 channel [1]: increase
Relative to 100 ng/mL AA (percentage of Sox17-positive cells normalized by the percentage with 100 ng/mL AA) [1]: 145%
nuclear blebbing in the resulting cell population [1]: not to induce

CCN1CCN(Cc2ccc(C(=O)Nc3ccc(C)c(Oc4ccc5c(c4)CC(=O)N5)c3)cc2C(F)(F)F)CC1 [DDR1-IN-1]
signal in Oct 4 channel [1]: decrease
signal in Sox17 channel [1]: increase
Relative to 100 ng/mL AA (percentage of Sox17-positive cells normalized by the percentage with 100 ng/mL AA) [1]: 120%
nuclear blebbing in the resulting cell population [1]: not to induce

O=C(c1ccc(-c2nc3ccc(F)cc3o2)cc1)N1CCN(C(=O)C2(O)CC2)CC1 [FT113]
Relative to 100 ng/mL AA (percentage of Sox17-positive cells normalized by the percentage with 100 ng/mL AA) [1]: 64%

Cc1c(CN2CCN(S(C)(=O)=O)CC2)sc2c(N3CCOCC3)nc(-c3cnc(N)nc3)nc12 [GNE-477]
signal in Oct 4 channel [1]: decrease
signal in Sox17 channel [1]: increase
Relative to 100 ng/mL AA (percentage of Sox17-positive cells normalized by the percentage with 100 ng/mL AA) [1]: 160%
nuclear blebbing in the resulting cell population [1]: not to induce

CC[C@H](C)n1cc(C)c2c(C(=O)NCc3c(C)cc(C)[nH]c3=O)cc(-c3ccc(N4CCNCC4)nc3)cc21 [GSK126]
selectivity over EZH1 ([2]; EZH2 vs EZH1): 150 fold

CCn1c(-c2nonc2N)nc2c(C#CC(C)(C)O)ncc(OC[C@H]3CCCNC3)c21 [GSK-690693]
S1C Sox17+/Oct4− ([3]; 0.1 μM GSK for 3 days of Stage 1 plus 10% AA (10 ng/mL Activin A), Runs 2-5, listed as GSK): 69 and 84.9 and 91.6 and 60
S1C Sox17 + /Oct4+ [3, 9]: 2.86%
S1C Sox17+/Oct4− [3, 9]: 91.6%
S5C Nkx6.1+/Isl1+ [4, 10]: 31.1 and 35.6 and 28.5
S5C Nkx6.1+/Isl1+ [4, 9]: 28.5%
S3C Pdx1 [5, 10]: 57.5 and 91.1 and 89.4
S3C Pdx1 + /Cdx2+ [5, 9]: 6.70%
S3C Pdx1 + /Sox2+ [5, 9]: 37.3%
St5C yield [6]: 3.02e+06 mL⁻¹ and 5.4416e+06 mL⁻¹
S6d7 Nkx6.1 + /Isl1+ ([7]; 10% AA (10 ng/mL Activin A) plus the compound(s) at Stage 1, day 7 of Stage 6): 34.8%
Markers on S6d7 Isl1 + /Nkx6.1+ ([7]; Stage 6 Regimen 1): 34.8
Markers on S6d7 Isl1 + /Nkx6.1− ([7]; Stage 6 Regimen 1): 8.17
Markers on S6d7 Isl1 + /Nkx6.1+ ([7]; Stage 6 Regimen 2): 36.3
Markers on S6d7 Isl1 + /Nkx6.1− ([7]; Stage 6 Regimen 2): 8.17
signal in Oct 4 channel [1]: decrease
signal in Sox17 channel [1]: increase
Relative to 100 ng/mL AA (percentage of Sox17-positive cells normalized by the percentage with 100 ng/mL AA) [1]: 119%
nuclear blebbing in the resulting cell population [1]: not to induce

CC(C)n1c([C@H](C)Nc2ncnc(N)c2C#N)cc2cccc(-c3ccc(=O)n(C)c3)c2c1=O [IPI-3063]
signal in Oct 4 channel [1]: decrease
signal in Sox17 channel [1]: increase
Relative to 100 ng/mL AA (percentage of Sox17-positive cells normalized by the percentage with 100 ng/mL AA) [1]: 130%
nuclear blebbing in the resulting cell population [1]: not to induce

O=C(Nc1cccc2cccnc12)c1ccc(N2C(=O)[C@@H]3[C@H](C2=O)[C@@H]2C=C[C@H]3C2)cc1 [IWR-1-endo]
nuclear blebbing in the resulting cell population [8]: not to induce
signal in Oct 4 channel [1]: decrease
signal in Sox17 channel [1]: increase

CC(C)N1CCN(Cc2cnc(-c3cc(-c4cccc5[nH]ccc45)cc4[nH]ncc34)o2)CC1 [Nemiralisib]
signal in Oct 4 channel [1]: decrease
signal in Sox17 channel [1]: increase
nuclear blebbing in the resulting cell population [1]: not to induce

COc1ncc(-c2ccc3nccc(-c4ccnnc4)c3c2)cc1NS(=O)(=O)c1ccc(F)cc1F [Omipalisib]
signal in Oct 4 channel [1]: decrease
signal in Sox17 channel [1]: increase
Relative to 100 ng/mL AA (percentage of Sox17-positive cells normalized by the percentage with 100 ng/mL AA) [1]: 75%
nuclear blebbing in the resulting cell population [1]: not to induce

COc1ccc(-c2sc(NC(=O)C(C)(C)C)nc2C)cc1S(=O)(=O)Nc1ccc(O)cc1 [PI4KIIIbeta-IN-10]
signal in Oct 4 channel [1]: decrease
signal in Sox17 channel [1]: increase
nuclear blebbing in the resulting cell population [1]: not to induce

CCCc1cc(C)[nH]c(=O)c1CNC(=O)c1cc(-c2ccc(N3CCN(C(C)C)CC3)nc2)cc2c1cnn2C(C)C [UNC1999]
selectivity compared with GSK126 [2]: less selective

Cc1nc2c(-c3cnc(N)nc3)nc(N3CCOCC3)nc2n1C(C)C [VS-5584]
nuclear blebbing in the resulting cell population [8]: not to induce

Nc1ccc(C(=O)Nc2cccc(-c3nc(N4CCOCC4)c4oc5ncccc5c4n3)c2)cn1 [YM201636]
signal in Oct 4 channel [1]: decrease
signal in Sox17 channel [1]: increase
